Reference: patent publication US20260137701A1, “CHOLESTENOIC ACID (CA) AND A SULFATED DERIVATIVE THEREOF, 3[BETA]-SULFATE-5-CHOLESTENOIC ACID (CA3S), AS ENDOGENOUS EPIGENETIC REGULATORS” (priority 2022, published 2026)

Experiments:
Human THP-1 macrophages = assay: LPS induced inflammatory gene expression in macrophages, real-time RT-PCR; type: cell-based; details: 20 uM CA3S 30 min, then 2 ug/ml LPS 6 hours
Description: Human THP-1 were plated in 6 well plates with RPMI 1640 media (10% FBS) and induced to be macrophages by 100 nM PMA for 3 days at 37° C. in a […] incubator. The media was then changed to fresh RPMI 1640 (serum free), the cells were treated with 20 uM CA3S in PG for 30 min, and then the cells were stimulated with 2 ug/ml LPS for 6 hours. Total mRNA was extracted by the Promega SV total RNA isolation system (Promega, Madison, WI, USA) and 1 ug of RNA were converted to cDNA with a Reverse Transcription kit (Qiagen, Hilden, Germany). IL-1A, IL-1B, IL-6, IL-8, COX-2, NFKB and TNFα gene expressions were determined by Real-time RT-PCR that was performed using SYBR Green as the indicator on ABI 7500 Fast Real-Time PCR System (Applied Biosystems, Foster City, CA).

Hep G2 cells = type: in vitro ADME, human
Source text: Mitochondrial oxysterols, including cholestenoic acid (CA), 25-hydroxycholesterol (25HC), and 27-hydroxycholesterol (27HC), are potent regulators involved in important biological events such as lipid metabolism and inflammatory responses. However, their intracellular catabolic pathways have not been fully explored. In this study, we investigated the metabolic pathways of these oxysterols and their roles in the communication between hepatocytes and macrophages.

recombinant DNMT3a = recombinant DNMT3a (Homo sapiens, UniProt Q9Y6K1); assay: DNMT3a enzyme kinetic (activity) assay, 3H-SAM filter; type: biochemical; details: FIG. 1B, 0-0.0001 M
Description: (§1) The enzyme kinetic studies were carried out by Reaction Biology Company. For the DNMT1 activity assay, the substrate solution, 0.001 mg/ml Poly(dI-dC): Poly(dI-dC) in 50 mM Tris-HCl, pH 7.5, 50 mM NaCl, 5 mM EDTA, 5 mM DTT, 1 mM PMSF, 5% glycerol, 0.01% Brij™35, 1% DMSO was used. For the DNMT3a/3b activity assay, 0.0075 mg/ml Lambda DNA in 50 mM Tris-HCl, pH 7.5, 50 mM NaCl, 5 mM EDTA, 5 mM DTT, 1 mM PMSF, 5% glycerol, 1% DMSO, was used. The indicated DNMT1, DNMT3a and DNMT3b were added to the appropriate substrate solution and gently mixed. Amounts of CA ranging from 5.08E-09 to 0.0001 M in DMSO were added to the reaction mixture by using Acoustic Technology (Echo® 550, LabCyte Inc. Sunnyvale, CA). The mixtures were first incubated for 15 min, then ^3H-SAM was added to the reaction mixture to initiate the reaction, and the mixture was incubated for 60 min at 30° C. Following incubation, the reaction mixture was finally transferred to filter-paper for detection of radioactivity counts.

recombinant DNMT1 = recombinant DNMT1 (Homo sapiens, UniProt P26358); assay: DNMT1 enzyme kinetic (activity) assay, 3H-SAM filter; type: biochemical; details: FIG. 1B, 0-0.0001 M
Description: as §1

recombinant DNMT3b = recombinant DNMT3b (Homo sapiens, UniProt Q9UBC3); assay: DNMT3b enzyme kinetic (activity) assay, 3H-SAM filter; type: biochemical; details: FIG. 1B, 0-0.0001 M
Description: as §1

Sequence of recombinant DNMT1 (P26358 whole entry): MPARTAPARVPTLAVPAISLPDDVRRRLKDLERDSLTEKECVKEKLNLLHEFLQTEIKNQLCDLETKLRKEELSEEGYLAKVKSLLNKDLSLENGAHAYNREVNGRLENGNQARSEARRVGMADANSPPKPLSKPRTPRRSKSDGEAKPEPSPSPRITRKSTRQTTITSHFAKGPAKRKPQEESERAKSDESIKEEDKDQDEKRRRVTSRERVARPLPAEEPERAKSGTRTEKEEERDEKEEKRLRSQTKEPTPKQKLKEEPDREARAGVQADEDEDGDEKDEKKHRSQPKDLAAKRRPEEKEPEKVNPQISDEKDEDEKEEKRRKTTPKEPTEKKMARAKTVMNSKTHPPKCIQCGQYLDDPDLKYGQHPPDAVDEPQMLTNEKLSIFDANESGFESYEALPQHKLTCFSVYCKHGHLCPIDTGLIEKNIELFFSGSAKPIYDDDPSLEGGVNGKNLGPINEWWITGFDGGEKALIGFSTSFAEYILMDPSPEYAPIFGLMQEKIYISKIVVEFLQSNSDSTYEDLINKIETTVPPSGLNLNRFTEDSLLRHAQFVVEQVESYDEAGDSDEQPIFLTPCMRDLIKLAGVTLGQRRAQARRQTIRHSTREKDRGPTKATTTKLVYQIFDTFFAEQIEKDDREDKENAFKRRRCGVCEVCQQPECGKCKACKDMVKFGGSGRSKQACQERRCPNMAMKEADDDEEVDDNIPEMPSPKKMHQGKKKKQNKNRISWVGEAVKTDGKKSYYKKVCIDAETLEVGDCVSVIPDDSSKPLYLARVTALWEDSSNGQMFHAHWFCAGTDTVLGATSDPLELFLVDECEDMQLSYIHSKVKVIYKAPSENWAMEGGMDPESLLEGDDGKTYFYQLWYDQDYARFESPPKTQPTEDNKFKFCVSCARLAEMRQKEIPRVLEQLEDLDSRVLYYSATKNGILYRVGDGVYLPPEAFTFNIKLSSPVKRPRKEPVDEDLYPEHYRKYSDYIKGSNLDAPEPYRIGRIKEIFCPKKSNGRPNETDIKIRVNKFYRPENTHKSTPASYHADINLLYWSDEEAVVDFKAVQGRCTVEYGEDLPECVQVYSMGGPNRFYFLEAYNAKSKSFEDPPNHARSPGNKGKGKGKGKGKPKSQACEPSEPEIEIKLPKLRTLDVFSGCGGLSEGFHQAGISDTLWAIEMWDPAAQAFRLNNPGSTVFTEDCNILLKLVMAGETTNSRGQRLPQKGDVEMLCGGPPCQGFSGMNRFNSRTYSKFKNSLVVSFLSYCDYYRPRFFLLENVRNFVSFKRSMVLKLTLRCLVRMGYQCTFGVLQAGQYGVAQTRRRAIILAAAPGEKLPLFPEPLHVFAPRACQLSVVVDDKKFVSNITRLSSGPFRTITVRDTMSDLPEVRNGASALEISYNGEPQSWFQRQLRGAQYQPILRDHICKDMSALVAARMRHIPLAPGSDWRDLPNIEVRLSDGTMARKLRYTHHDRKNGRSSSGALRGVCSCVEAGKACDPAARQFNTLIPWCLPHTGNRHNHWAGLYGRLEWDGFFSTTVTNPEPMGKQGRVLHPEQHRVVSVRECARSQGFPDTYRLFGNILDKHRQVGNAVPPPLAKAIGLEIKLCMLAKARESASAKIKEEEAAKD
Sequence of recombinant DNMT3a (Q9Y6K1 whole entry, looked up): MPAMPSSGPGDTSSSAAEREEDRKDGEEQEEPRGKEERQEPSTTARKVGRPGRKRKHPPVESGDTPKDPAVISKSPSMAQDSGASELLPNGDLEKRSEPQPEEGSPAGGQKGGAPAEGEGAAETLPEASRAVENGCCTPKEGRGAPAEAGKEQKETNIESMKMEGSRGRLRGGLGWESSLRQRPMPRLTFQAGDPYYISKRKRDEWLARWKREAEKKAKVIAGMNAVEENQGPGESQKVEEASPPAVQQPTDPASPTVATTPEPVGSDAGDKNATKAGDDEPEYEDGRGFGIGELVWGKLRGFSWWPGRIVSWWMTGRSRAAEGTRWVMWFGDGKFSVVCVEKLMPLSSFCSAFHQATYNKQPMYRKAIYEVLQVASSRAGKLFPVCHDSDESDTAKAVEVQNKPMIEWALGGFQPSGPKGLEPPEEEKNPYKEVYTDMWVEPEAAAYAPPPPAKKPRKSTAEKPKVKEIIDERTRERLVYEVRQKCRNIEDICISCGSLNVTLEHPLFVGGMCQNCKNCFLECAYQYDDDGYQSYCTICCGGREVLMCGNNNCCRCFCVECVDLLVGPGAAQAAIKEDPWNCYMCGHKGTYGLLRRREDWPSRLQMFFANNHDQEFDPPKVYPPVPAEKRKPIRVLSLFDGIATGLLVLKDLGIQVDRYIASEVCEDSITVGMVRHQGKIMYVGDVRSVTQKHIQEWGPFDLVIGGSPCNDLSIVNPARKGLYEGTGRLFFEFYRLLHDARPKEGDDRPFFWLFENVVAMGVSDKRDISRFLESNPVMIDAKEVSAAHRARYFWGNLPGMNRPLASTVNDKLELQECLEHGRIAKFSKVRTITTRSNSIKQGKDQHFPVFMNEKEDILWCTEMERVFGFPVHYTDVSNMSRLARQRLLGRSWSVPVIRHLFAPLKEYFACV

Compound | decrease of COX-2 gene expression (Human THP-1 macrophages) | decrease of IL-6 gene expression (Human THP-1 macrophages) | part of formed 25HC3S released into the media (Hep G2 cells) | effect on DNMT3a enzymatic activity (recombinant DNMT3a) | effect on DNMT1 enzymatic activity (recombinant DNMT1) | effect on DNMT3b enzymatic activity (recombinant DNMT3b) | part of the compound converted to 27HC3S (Hep G2 cells) | part of the compound converted to CA3S (Hep G2 cells)
CC(CCC[C@@H](C)[C@H]1CCC2[C@@H]3CC=C4CC(OS(=O)(=O)O)CC[C@]4(C)C3CC[C@@]21C)C(=O)O (stereo partly drawn) [CA3S, 3 β-hydroxy-5-cholestenoic acid 3-sulfate] | 5 fold | 6 fold |  |  |  |  |  | 
C[C@H](CCCC(C)(C)O)[C@H]1CC[C@H]2[C@@H]3CC=C4C[C@@H](O)CC[C@]4(C)[C@H]3CC[C@]12C [25HC, 25-hydroxycholesterol] |  |  | ⅓ | do not have any effect | potent activators | do not have any effect |  | 
C[C@@H](CO)CCC[C@@H](C)[C@H]1CC[C@H]2[C@@H]3CC=C4C[C@@H](O)CC[C@]4(C)[C@H]3CC[C@]12C [27HC, 27-hydroxycholesterol] |  |  |  | do not have any effect | potent activators | do not have any effect | ⅓ | ⅔
